This passage reports IC50 results from ChEMBL document CHEMBL3792279, “Design, synthesis, and evaluation of hinge-binder tethered 1,2,3-triazolylsalicylamide derivatives as Aurora kinase inhibitors” (Bioorg Med Chem, 2016).

The structures appear in SMILES notation.

One test addresses T1, Aurora kinase A (Homo sapiens, UniProt O14965).
T1 sequence (O14965 whole entry): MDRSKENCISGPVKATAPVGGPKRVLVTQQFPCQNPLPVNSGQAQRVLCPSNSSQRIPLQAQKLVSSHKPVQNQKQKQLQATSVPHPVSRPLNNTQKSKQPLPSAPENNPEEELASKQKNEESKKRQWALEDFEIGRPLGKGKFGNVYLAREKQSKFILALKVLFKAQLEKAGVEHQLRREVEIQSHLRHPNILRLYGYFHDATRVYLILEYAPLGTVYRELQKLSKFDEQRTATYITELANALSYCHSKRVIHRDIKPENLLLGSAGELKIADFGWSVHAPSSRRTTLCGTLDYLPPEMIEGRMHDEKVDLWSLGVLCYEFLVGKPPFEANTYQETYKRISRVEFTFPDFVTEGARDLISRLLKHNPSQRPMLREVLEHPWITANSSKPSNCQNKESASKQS
As to the kind of experiment: Inhibition of human Aurora A using H-LRRASLG as substrate after 2 hrs by HotSpot assay in presence of 33P-ATP and 10 uM ATP.

The target of a further test is Aurora kinase B (Homo sapiens, UniProt Q96GD4). Put plainly: Inhibition of human Aurora B using H-LRRASLG as substrate after 2 hrs by HotSpot assay in presence of 33P-ATP and 10 uM ATP.
Aurora kinase B, sequence (Q96GD4 whole entry): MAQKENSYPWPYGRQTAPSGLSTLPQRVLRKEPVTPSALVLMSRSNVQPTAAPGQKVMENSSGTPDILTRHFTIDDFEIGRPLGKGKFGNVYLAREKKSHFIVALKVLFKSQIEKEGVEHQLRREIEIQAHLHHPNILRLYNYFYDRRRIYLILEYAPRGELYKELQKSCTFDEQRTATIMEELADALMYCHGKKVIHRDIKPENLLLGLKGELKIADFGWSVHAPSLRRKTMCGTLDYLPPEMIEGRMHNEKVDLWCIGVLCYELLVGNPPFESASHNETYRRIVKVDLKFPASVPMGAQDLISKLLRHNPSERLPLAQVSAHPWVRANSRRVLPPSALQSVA

Take `COC(=O)c1cccc(NC(=O)c2cc(-n3cc(CNc4ncccn4)nn3)ccc2O)c1`: the IC50 came to 15.4 µM on Aurora kinase A and 40.7 µM at Aurora kinase B.
Taken in the same sequence, the figures for `COC(=O)c1cccc(NC(=O)c2cc(-n3cc(-c4cc(OC)cc(OC)c4)nn3)ccc2O)c1` were 0.768 µM and 5.94 µM.
Take `COC(=O)c1cccc(NC(=O)c2cc(-n3cc(CNc4ccccn4)nn3)ccc2O)c1`: the IC50 turned out to be 6.43 µM at Aurora kinase A and 32.1 µM on Aurora kinase B.
Turning to `COC(=O)c1cccc(NC(=O)c2cc(-n3cc(CNc4ncnc5ccsc45)nn3)ccc2O)c1`, the IC50 on Aurora kinase A is 0.801 µM; on Aurora kinase B, 20.1 µM.
Turning to `COC(=O)c1cccc(NC(=O)c2cc(-n3cc(CNc4ccccc4)nn3)ccc2O)c1`, the IC50 amounted to 5.15 µM on Aurora kinase A and 36.5 µM on Aurora kinase B.
The like results for `COC(=O)c1cccc(NC(=O)c2cc(-n3cc(CNc4cc(C)[nH]n4)nn3)ccc2O)c1` were, in that order, 13.7 µM and 49.5 µM.
The like results for `COC(=O)c1cccc(NC(=O)c2cc(-n3cc(CNc4cc(C)ccn4)nn3)ccc2O)c1` were, in that order, 6.07 µM and 16.3 µM.
The like results for `COC(=O)c1cccc(NC(=O)c2cc(-n3cc(-c4ccc5nccnc5c4)nn3)ccc2O)c1` were, in that order, 0.607 µM and 7.3 µM.
In the case of `COC(=O)c1cccc(NC(=O)c2cc(-n3cc(CCNc4ncnc5ccsc45)nn3)ccc2O)c1`, the IC50 at Aurora kinase A amounted to 2.97 µM; on Aurora kinase B, 0.364 µM.
As to `COC(=O)c1cccc(NC(=O)c2cc(-n3cc(CNc4cc(C)on4)nn3)ccc2O)c1`, the figures for the IC50 at Aurora kinase A and on Aurora kinase B were 12.4 µM and 54.8 µM, respectively.
For the compound `COC(=O)c1cccc(NC(=O)c2cc(-n3cc(CCNc4ncccn4)nn3)ccc2O)c1`, the figures for the 50% inhibitory concentration (IC50) at Aurora kinase A and at Aurora kinase B were 7.67 µM and 15.2 µM, respectively.
The like results for `COC(=O)c1cccc(NC(=O)c2cc(-n3cc(CNc4nc5ccccc5o4)nn3)ccc2O)c1` were, in that order, 3.52 µM and 10.2 µM.
In the case of `COC(=O)c1cccc(NC(=O)c2cc(-n3cc(-c4cccc([N+](=O)[O-])c4)nn3)ccc2O)c1`, the IC50 at Aurora kinase A was determined as 0.284 µM; on Aurora kinase B, 1.33 µM.
The like results for `COC(=O)c1cccc(NC(=O)c2cc(-n3cc(-c4ccc5c(c4)OCO5)nn3)ccc2O)c1` were, in that order, 0.638 µM and 2.19 µM.

The term IC50 denotes the concentration at which inhibition is half-maximal.
